Test results from publication PMC10492809, “A Bischler-Napieralski and homo-Mannich sequence enables diversified syntheses of sarpagine alkaloids and analogues” (Nature Communications, 2023).
“And” between values parts separate entries of the source, which are not always exact repeats. Equal values may be shown once. Read-outs that look alike come from different tables or passages of the source.

What was measured:
Assay type in all cases: cell-based
HCT 116 = test: MTT cell viability assay, HCT 116
Protocol: (§1) All cell lines were cultured at 37 °C with 5% CO2 in a humidified incubator. HeLa cells were grown in MEM (Gibco) supplemented with 10% fetal bovine serum (FBS, Hyclone) and 1% penicillin/streptomycin (Gibco). MIA PaCa-2, MDA-MB-231, A549, MCF-7, A375 and BEAS-2B cells were grown in DMEM (Gibco) supplemented with 10% FBS and 1% penicillin/streptomycin. CT26, and HCT116 cells were grown in RPMI-1640 supplemented with 10% FBS and 1% penicillin/streptomycin. All cell lines were purchased from the National Collection of Authenticated Cell Cultures (China).
(§2) The antiproliferative activities of the prepared compounds against tested cell lines were evaluated using a standard (MTT)-based colorimetric assay. Cells were plated at a density of 3000 cells/well in 96-well plates and allowed to adhere overnight. Then cells were treated with varying concentrations of synthesized compounds for 72 h. At the end of treatment, 20 μL of thiazolyl blue tetrazolium bromide (MTT) solution (5 mg/mL) was added to each well. Cells were incubated for an additional 4 h at 37 °C and then the medium was removed and replaced with 200 μL of DMSO. The absorbance (OD490) was read on a microplate reader (SpectraMax i3x, Molecular Devices, US). In all experiments, three replicate wells were used for each drug concentration. Each assay was performed at least three times. The IC50 values were calculated by GraphPad Prism 9, which were the mean values derived from three independent experiments.

A549 = test: MTT cell viability assay, A549
Protocol: as §1, §2

MDA-MB-231 cells [1] = test: Measurement of lipid (BODIPY-C11) and cytosolic (DCFH-DA) ROS; settings: 12 h; suppressed by Fer-1 (10 μM)
Protocol: Lipid ROS was analyzed by flow cytometry: cells were plated at a density of 2 × 10^5 cells/well in 6-well plates. After treatment as indicated, cells were stained with 5 μM BODIPY-C11 dye (diluted in serum-containing DMEM) for 30 min at 37 °C in an incubator. For cytosolic ROS, cells were stained with 10 μM DCF (diluted in serum-free DMEM). Following staining, cells were pelleted and resuspended in 1 mL of PBS. Fluorescence intensity was measured by the analytical flow cytometry (CytoFLEX, […], US). A minimum of 10,000 cells were analyzed for each condition. Data analysis was performed using the FlowJo 7.6.1 software. The starting cell population gating by Forward Scatter and Side Scatter was used to make sure doublet exclusion. Only single cell was used for analysis.

MCF-7 = test: MTT cell viability assay, MCF-7
Protocol: as §1, §2

cancer cell lines = test: In vitro cancer cell assays (antiproliferation, cell line not given); settings: improvement over vellosimine (4)
Protocol: as §1, §2

[2] = MTT cytotoxicity towards normal cells, BEAS-2B; settings: human
Protocol: as §1, §2

GPX4 = test: Western blotting, GPX4 protein expression; settings: 15ai 0, 2, 4 and 8 μM, 24 h
Protocol: (§3) Cells on 6-well plates were rinsed twice with cold PBS and lysed in RIPA lysis buffer (50 mM Tris (pH 7.4), 150 mM NaCl, 1% Triton X-100, 1% deoxycholicphenyl methylsulfonyl fluoride, 5.0 mM sodium pyrophosphate, […] leupeptin, 0.1 mM phenylmethylsulfonyl fluoride, and1 mM DTT) containing a protease inhibitor (PMSF) mixture at 1:100 dilution on ice for 30 min. The insoluble components of cell lysates were removed by centrifugation (4 °C, 12000 × g, 10 min), and protein concentrations were measured using a Pierce BCA protein assay kit. Proteins were separated by sodium dodecyl sulfate-polyacrylamide gel electrophoresis (SDS-PAGE) and transferred onto polyvinylidene difluoride (PVDF) membranes. Membranes were blocked using 5% skim milk in TBST and then incubated with diluted indicated primary antibodies: anti-GPX4 (1:1000 dilution, Proteintech, Cat No: 30388-1-AP), anti-SLC7A11 (1:1000 dilution, ABclonal, Cat No: A13685), anti-GAPDH (1:1000 dilution, Wanlei, Cat No: WL01114) at 4 °C with gentle shaking overnight. After washing five times (5 min each) with TBST, membranes were incubated with the HRP conjugated goat anti rabbit IgG (H + L) (1:5000 dilution, Wanlei, Cat No: WLA023) for 1 h at rt. Immunoreactive bands were visualized using an ECL detection kit (Wanlei, Cat No: WLA006) following the manufacturer’s instruction on the ChemiDoc system (BioRad, Shanghai, China).

Hela = test: MTT cell viability assay, Hela
Protocol: as §1, §2

MIA PaCa-2 = test: MTT cell viability assay, MIA PaCa-2
Protocol: as §1, §2

MDA-MB-231 cells [3] = test: Transmission electron microscopy of cell morphology; settings: 15ai 4 μM, 24 h
Protocol: Cells were plated at a density of 6 × 10^5 cells/dish in 10 cm culture dishes and allowed to adhere overnight. Then cells were treated with DMSO or compound 15ai for 24 h. Cells were fixed with 2.5% glutaraldehyde in […] phosphate buffer, followed by 1% OsO4 for 2 h. After dehydration, cells were embedded in epoxy resin. The ultrathin sections were made by an ultramicrotome and then stained with lead citrate and uranyl acetate. Images were acquired using the transmission electron microscope (Hitachi H-7650 100kv, Hitachi, Japan). Each experiment was repeated three times independently with similar results.

A375 = test: MTT cell viability assay, A375
Protocol: as §1, §2

SLC7A11 = test: Western blotting, SLC7A11 protein expression; settings: 15ai 0, 2, 4 and 8 μM, 24 h
Protocol: as §3

For `C=C=C1CN2[C@H]3C[C@H]1[C@H](C=O)[C@@H]2Cc1c3n(S(=O)(=O)c2ccc(C)cc2)c2ccc(Cl)cc12` [Compound 15ai], the IC50 (HCT 116; Homo sapiens, HCT-116, 72 h, MTT, 72 h, mean of at least three independent experiments, read-out: IC50 HCT 116) was 4.78 µM, the IC50 (HCT 116; Homo sapiens, HCT-116, source data sheet, single values of three experiments, read-out: MTT IC50 HCT-116) was 6.28 µM and the IC50 (HCT 116; source data sheet, single values of three experiments, read-out: MTT IC50 HCT-116) was 3.83 µM and 4.24 µM. For the same compound, the IC50 (A549; Homo sapiens, A549, 72 h, MTT, 72 h, mean of at least three independent experiments, read-out: IC50 A549) was 13 µM, the IC50 (A549; Homo sapiens, A549, source data sheet, single values of three experiments, read-out: MTT IC50 A549) was 14.6 µM and the IC50 (A549; source data sheet, single values of three experiments, read-out: MTT IC50 A549) was 12.5 µM and 11.8 µM. The “lipid ROS and cytosolic ROS accumulation” value (MDA-MB-231 cells [1]) was “induce lipid ROS and cytosolic ROS accumulation significantly”, the IC50 (MCF-7; Homo sapiens, MCF7, 72 h, MTT, 72 h, mean of at least three independent experiments, read-out: IC50 MCF-7) was 13.9 µM and the IC50 (MCF-7; Homo sapiens, MCF7, source data sheet, single values of three experiments, read-out: MTT IC50 MCF-7) was 16 µM. For the same compound, the IC50 (MCF-7; source data sheet, single values of three experiments, read-out: MTT IC50 MCF-7) was 12.8 µM and 12.9 µM, the “anticancer activity compared to vellosimine (4)” value (cancer cell lines) was “tenfold-improved” and the IC50 at 72 h ([2]; BEAS-2B lung epithelial cells (normal cells), source data sheet, single values of three experiments) was > 100 µM. The CC50 at 72 h ([2]; BEAS-2B lung epithelial cells, MTT, 72 h, cytotoxicity towards normal cells, mean of at least three independent experiments) was > 100 µM, the “protein level of GPX4” value (GPX4) was “did not affect the protein level of GPX4” and the IC50 (Hela; Homo sapiens, HeLa, 72 h, MTT, 72 h, mean of at least three independent experiments, read-out: IC50 Hela) was 2.95 µM. The IC50 (Hela; Homo sapiens, HeLa, source data sheet, single values of three experiments, read-out: MTT IC50 Hela) was 3.02 µM, the IC50 (Hela; source data sheet, single values of three experiments, read-out: MTT IC50 Hela) was 2.02 µM and 3.81 µM and the IC50 (MIA PaCa-2; Homo sapiens, MIA PaCa-2, 72 h, MTT, 72 h, mean of at least three independent experiments, read-out: IC50 MIA PaCa-2) was 8.32 µM. For the same compound, the IC50 (MIA PaCa-2; Homo sapiens, MIA PaCa-2, source data sheet, single values of three experiments, read-out: MTT IC50 MIA PaCa-2) was 7.92 µM, the IC50 (MIA PaCa-2; source data sheet, single values of three experiments, read-out: MTT IC50 MIA PaCa-2) was 10 µM and 7.05 µM and the “cell morphology by TEM” value (MDA-MB-231 cells [3]) was “mitochondrial swelling occurred”. For the same compound, the IC50 (A375; Homo sapiens, A-375, 72 h, MTT, 72 h, mean of at least three independent experiments, read-out: IC50 A375) was 2.64 µM, the IC50 (A375; Homo sapiens, A-375, source data sheet, single values of three experiments, read-out: MTT IC50 A375) was 2.78 µM and the IC50 (A375; source data sheet, single values of three experiments, read-out: MTT IC50 A375) was 1.96 µM and 3.18 µM. For the same compound, the SLC7A11 level (SLC7A11) was “dose-dependently decreased”.
